# Results reported in patent US20100029657A1, “Bridged, Bicyclic Heterocyclic or Spiro Bicyclic Heterocyclic Derivatives of Pyrazolo[1, 5-A]Pyrimidines, Methods for Preparation and Uses Thereof” (Wyeth, priority 2008, published 2010).
# Counter-ions that a name gives are not always drawn.
# Target: T1, Flag/GST-tagged recombinant human B-Raf (Homo sapiens, UniProt P15056)
# T1 construct: Flag; GST; made in house; host or cells: Sf9 insect cells (B-Raf); E. coli (MEK1-GST)
# Test: B-Raf kinase assay (phosphorylation of GST-MEK1, phospho-MEK1 antibody/Europium detection)
# Format: biochemical
# Settings: B-Raf IC50 Data for compounds of Formula A; read-out: Mean IC50
# Method in brief: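 Percent inhibition was calculated at each compound concentration from Europium time-resolved fluorescence (anti-phospho-MEK1, then Eu-conjugated anti-rabbit) after GST capture. The upstream kinase step used GST-MEK1 with 0.2 nM B-Raf for 45 min at room temperature in MOPS buffer, pH 7.2. It was started with a cocktail of 200 μM ATP and 40 mM MgCl2.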
# T1 sequence (P15056 whole entry): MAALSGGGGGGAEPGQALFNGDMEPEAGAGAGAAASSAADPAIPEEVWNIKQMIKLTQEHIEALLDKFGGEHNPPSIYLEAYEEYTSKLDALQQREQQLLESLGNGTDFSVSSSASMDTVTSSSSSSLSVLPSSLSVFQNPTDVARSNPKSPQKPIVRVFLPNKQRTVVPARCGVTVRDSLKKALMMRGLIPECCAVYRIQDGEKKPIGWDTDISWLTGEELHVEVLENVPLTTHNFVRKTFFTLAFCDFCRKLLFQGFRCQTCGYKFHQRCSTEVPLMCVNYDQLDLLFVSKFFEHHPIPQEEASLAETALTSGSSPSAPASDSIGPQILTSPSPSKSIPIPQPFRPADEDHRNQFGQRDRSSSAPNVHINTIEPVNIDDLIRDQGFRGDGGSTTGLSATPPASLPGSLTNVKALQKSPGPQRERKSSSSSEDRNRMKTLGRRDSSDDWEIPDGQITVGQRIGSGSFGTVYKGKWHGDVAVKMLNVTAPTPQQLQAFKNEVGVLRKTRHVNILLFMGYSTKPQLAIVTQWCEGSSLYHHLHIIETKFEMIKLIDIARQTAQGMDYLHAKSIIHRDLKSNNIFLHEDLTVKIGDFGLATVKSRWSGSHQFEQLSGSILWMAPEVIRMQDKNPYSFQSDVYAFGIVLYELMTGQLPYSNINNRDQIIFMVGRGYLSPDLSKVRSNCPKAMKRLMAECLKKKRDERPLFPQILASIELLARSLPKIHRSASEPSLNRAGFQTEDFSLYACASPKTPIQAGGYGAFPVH
row,SMILES,IC50 [µM]
1,"CCN1C2CCC1CC(c1ccnc3c(-c4ccc(C)c5[nH]ncc45)c(-c4ccncc4)nn13)C2 (stereo not drawn) [Example 77, 7-(8-ethyl-8-azabicyclo[3.2.1]oct-3-yl)-3-(7-methyl-1H-indazol-4-yl)-2-pyridin-4-ylpyrazolo[1,5-a]pyrimidine, trifluoroacetate salt]",0.017
2,"CCOC(=O)N1C2CCC1CC(c1ccnc3c(-c4ccc(C)c5[nH]ncc45)c(-c4ccncc4)nn13)C2 (stereo not drawn) [Example 78, Ethyl 3-[3-(7-Methyl-1H-indazol-4-yl)-2-pyridin-4-ylpyrazolo[1,5-a]pyrimidin-7-yl]-8-azabicyclo[3.2.1]octane-8-carboxylate, trifuoroacetate salt]",0.0007
3,"CCN1C2CCC1CC(c1ccnc3c(-c4ccc(Cl)c5[nH]ncc45)c(-c4ccncc4)nn13)C2 (stereo not drawn) [Example 79, 3-(7-Chloro-1H-indazol-4-yl)-7-(8-ethyl-8-azabicyclo[3.2.1]oct-3-yl)-2-pyridin-4-ylpyrazolo[1,5-a]pyrimidin, trifluoroacetate salt]",0.004
4,"CCN1C2CCC1CC(c1ccnc3c(-c4ccc(C(F)(F)F)c5[nH]ncc45)c(-c4ccncc4)nn13)C2 (stereo not drawn) [Example 80, 7-(8-Ethyl-8-azabicyclo[3.2.1]oct-3-yl)-2-pyridin-4-yl-3-[7-(trifluoromethyl)-1H-indazol-4-yl]pyrazolo[1,5-a]pyrimidine, trifluoroacetate salt]",0.048
5,"CCOC(=O)N1C2CCC1CC(c1ccnc3c(-c4ccc(F)c5[nH]ncc45)c(-c4ccncc4)nn13)C2 (stereo not drawn) [Example 81, Ethyl 3-[3-(7-fluoro-1H-indazol-4-yl)-2-pyridin-4-ylpyrazolo[1,5-a]pyrimidin-7-yl]-8-azabicyclo[3.2.1]octane-8-carboxylate, trifluoroacetate salt]",0.0004
6,"CCN1C2CCC1CC(c1ccnc3c(-c4cc(F)c(Cl)c5[nH]ncc45)c(-c4ccncc4)nn13)C2 (stereo not drawn) [Example 82, 3-(7-Chloro-6-fluoro-1H-indazol-4-yl)-7-(8-ethyl-8-azabicyclo[3.2.1]oct-3-yl)-2-pyridin-4-ylpyrazolo[1,5-a]pyrimidine, trifluoro acetate salt]",0.002
7,"CCOC(=O)N1C2CCC1CC(c1ccnc3c(-c4ccc5cc[nH]c5c4)c(-c4ccncc4)nn13)C2 (stereo not drawn) [Example 85, Ethyl 3-[3-(1H-indol-6-yl)-2-pyridin-4-ylpyrazolo[1,5-a]pyrimidin-7-yl]-8-azabicyclo[3.2.1]octane-8-carboxylate]",0.036
8,"CCN1C2CCC1CC(c1ccnc3c(-c4ccc5cc[nH]c5c4)c(-c4ccncc4)nn13)C2 (stereo not drawn) [Example 87, 7-(8-Ethyl-8-azabicyclo[3.2.1]oct-3-yl)-3-(1H-indol-6-yl)-2-pyridin-4-ylpyrazolo[1,5-a]pyrimidine]",0.032
9,"CCN1C2CCC1CC(c1ccnc3c(-c4cccc5[nH]ncc45)c(-c4ccncc4)nn13)C2 (stereo not drawn) [Example 90, 7-(8-Ethyl-8-azabicyclo[3.2.1]octan-3-yl)-3-(1H-indazol-4-yl)-2-(pyridin-4-yl)pyrazolo[1,5-a]pyrimidine]",0.046
10,"CCOC(=O)N1C2CCC1CC(c1ccnc3c(-c4cccc(-c5nnco5)c4)c(-c4ccncc4)nn13)C2 (stereo not drawn) [Example 91, Ethyl 3-(3-(3-(1,3,4-oxadiazol-2-yl)phenyl)-2-(pyridin-4-yl)pyrazolo[1,5-a]pyrimidin-7-yl)-8-azabicyclo[3.2.1]octane-8-carboxylate]",0.162
11,"Clc1cc(N2C[C@@H]3C[C@H]2CN3)ccc1-c1ccnc2c(-c3cccc4[nH]ncc34)c(-c3ccncc3)nn12 [Example 97, 7-[2-Chloro-4-((1S,4S)-2,5-diaza-bicyclo[2.2.1]hept-2-yl)-phenyl]-3-(1H-indazol-4-yl)-2-pyridin-4-yl-pyrazolo[1,5-a]pyrimidine bis-hydrochloride salt]",< 0.0003
12,"CC(C)(C)OC(=O)N1C[C@@H]2C[C@H]1CN2c1cc(F)c(-c2ccnc3c(-c4cccc5[nH]ncc45)c(-c4ccncc4)nn23)c(F)c1 [Example 99, tert-butyl(1S,4S)-5-{3,5-difluoro-4-[3-(1H-indazol-4-yl)-2-pyridin-4-ylpyrazolo[1,5-a]pyrimidin-7-yl]phenyl}-2,5-diazabicyclo[2.2.1]heptane-2-carboxylate]",0.0016
13,"Fc1cc(N2C[C@@H]3C[C@H]2CN3)cc(F)c1-c1ccnc2c(-c3cccc4[nH]ncc34)c(-c3ccncc3)nn12 [Example 100, 7-(4-((1S,4S)-2,5-diazabicyclo[2.2.1]heptan-2-yl)-2,6-difluorophenyl)-3-(1H-indazol-4-yl)-2-(pyridin-4-yl)pyrazolo[1,5-a]pyrimidine]",< 0.0002
14,"Fc1ccc(-c2c(-c3ccncc3)nn3c(-c4ccc(N5C[C@@H]6C[C@H]5CN6)cc4)ccnc23)c2cn[nH]c12 [Example 103, 7-[4-(2,5-Diaza-bicyclo[2.2.1]hept-2-yl)-phenyl]-3-(7-fluoro-1H-indazol-4-yl)-2-pyridin-4-yl-pyrazolo[1,5-a]pyrimidine]",< 0.0003

# Next, values leading:
row,IC50 [µM],SMILES
1,< 0.0003,"Fc1cc(N2C[C@@H]3C[C@H]2CN3)ccc1-c1ccnc2c(-c3cccc4[nH]ncc34)c(-c3ccncc3)nn12 [Example 93, 7-{4-[(1S,4S)-2,5-diazabicyclo[2.2.1]hept-2-yl]-2-fluorophenyl}-3-(1H-indazol-4-yl)-2-pyridin-4-ylpyrazolo[1,5-a]pyrimidine]"
2,0.0001,"CN1C[C@@H]2C[C@H]1CN2c1ccc(-c2ccnc3c(-c4cccc5[nH]ncc45)c(-c4ccncc4)nn23)c(F)c1 [Example 94, 7-{2-Fluoro-4-[(1S,4S)-5-methyl-2,5-diazabicyclo[2.2.1]hept-2-yl]phenyl}-3-(1H-indazol-4-yl)-2-pyridin-4-yl pyrazolo[1,5-a]pyrimidine]"
3,0.00059,"C[N+]1([O-])C[C@@H]2C[C@H]1CN2c1ccc(-c2ccnc3c(-c4cccc5[nH]ncc45)c(-c4ccncc4)nn23)c(F)c1 (stereo partly drawn) [Example 95, 7-{2-fluoro-4-[(1S,4S)-5-methyl-5-oxido-2,5-diazabicyclo[2.2.1]hept-2-yl]phenyl}-3-(1H-indazol-4-yl)-2-pyridin-4-ylpyrazolo[1,5-a]pyrimidine]"
4,< 0.0003,"CN1C[C@@H]2C[C@H]1CN2c1ccc(-c2ccnc3c(-c4cccc5[nH]ncc45)c(-c4ccncc4)nn23)c(Cl)c1 [Example 98, 7-[2-Chloro-4-((1S,4S)-5-methyl-2,5-diaza-bicyclo[2.2.1]hept-2-yl)-phenyl]-3-(1H-indazol-4-yl)-2-pyridin-4-yl-pyrazolo[1,5-a]pyrimidine]"
5,< 0.0001,"CN1C[C@@H]2C[C@H]1CN2c1cc(F)c(-c2ccnc3c(-c4cccc5[nH]ncc45)c(-c4ccncc4)nn23)c(F)c1 [Example 101, 7-{2,6-difluoro-4-[(1S,4S)-5-methyl-2,5-diazabicyclo[2.2.1]hept-2-yl]phenyl}-3-(1H-indazol-4-yl)-2-pyridin-4-yl pyrazolo[1,5-a]pyrimidine]"
6,0.00204,"CC(C)(C)OC(=O)N1C[C@@H]2C[C@H]1CN2c1ccc(-c2ccnc3c(-c4ccc(F)c5[nH]ncc45)c(-c4ccncc4)nn23)cc1 [Example 102, tert-Butyl(1S,4S)-5-{4-[3-(7-fluoro-1H-indazol-4-yl)-2-pyridin-4-ylpyrazolo[1,5-a]pyrimidin-7-yl]phenyl}-2,5-diazabicyclo[2.2.1]heptane-2-carboxylate]"
7,0.00024,"CN1C[C@@H]2C[C@H]1CN2c1ccc(-c2ccnc3c(-c4ccc(F)c5[nH]ncc45)c(-c4ccncc4)nn23)cc1 [Example 104, 3-(7-fluoro-1H-indazol-4-yl)-7-{4-[(1S,4S)-5-methyl-2,5-diazabicyclo[2.2.1]hept-2-yl]phenyl}-2-pyridin-4-ylpyrazolo[1,5-a]pyrimidine hydrochloride]"
8,< 0.0003,"Fc1cc(N2C[C@@H]3C[C@H]2CN3)ccc1-c1ccnc2c(-c3ccc(F)c4[nH]ncc34)c(-c3ccncc3)nn12 [Example 106, 7-{4-[(1S,4S)-2,5-diazabicyclo[2.2.1]hept-2-yl]-2-fluorophenyl}-3-(7-fluoro-1H-indazol-4-yl)-2-pyridin-4-yl pyrazolo[1 5-a]pyrimidine]"
9,< 0.0003,"CN1C[C@@H]2C[C@H]1CN2c1ccc(-c2ccnc3c(-c4ccc(F)c5[nH]ncc45)c(-c4ccncc4)nn23)c(F)c1 [Example 107, 3-(7-fluoro-1H-indazol-4-yl)-7-{2-fluoro-4-[(1S,4S)-5-methyl-2,5-diazabicyclo[2.2.1]hept-2-yl]phenyl}-2-pyridin-4-ylpyrazolo[1,5-a]pyrimidine]"
10,< 0.0003,"Fc1cc(N2C[C@@H]3C[C@H]2CN3)cc(F)c1-c1ccnc2c(-c3ccc(F)c4[nH]ncc34)c(-c3ccncc3)nn12 [Example 109, 7-{4-[(1S,4S)-2,5-Diazabicyclo[2.2.1]hept-2-yl]-2,6-difluorophenyl}-3-(7-fluoro-1H-indazol-4-yl)-2-pyridin-4-yl pyrazolo[1,5-a]pyrimidine]"
11,< 0.0001,"CN1C[C@@H]2C[C@H]1CN2c1cc(F)c(-c2ccnc3c(-c4ccc(F)c5[nH]ncc45)c(-c4ccncc4)nn23)c(F)c1 [Example 110, 7-{2,6-Difluoro-4-[(1S,4S)-5-methyl-2,5-diazabicyclo[2.2.1]hept-2-yl]phenyl}-3-(7-fluoro-1H-indazol-4-yl)-2-pyridin-4-yl pyrazolo[1,5-a]pyrimidine]"

# Same assay, conditions: Mean IC50 (uM), B-Raf IC50 Data for compounds of Formula A
row,SMILES,IC50 [µM]
1,"CCOC(=O)N1C2CCC1CC(c1ccnc3c(-c4ccc(Cl)c5[nH]ncc45)c(-c4ccncc4)nn13)C2 (stereo not drawn) [Example 75, Ethyl 3-[3-(7-chloro-1H-indazol-4-yl)-2-pyridin-4-ylpyrazolo[1,5-a]pyrimidin-7-yl]-8-azabicyclo[3.2.1]octane-8-carboxylate]",0.0003
2,"CCOC(=O)N1C2CCC1CC(c1ccnc3c(-c4ccc(C(F)(F)F)c5[nH]ncc45)c(-c4ccncc4)nn13)C2 (stereo not drawn) [Example 76, Ethyl 3-{2-pyridin-4-yl-3-[7-(trifluoromethyl)-1H-indazol-4-yl]pyrazolo[1,5-a]pyrimidin-7-yl}-8-azabicyclo[3.2.1]octane-8-carboxylate]",0.004
